# Literature values in US20160271257A1, “Low Molecular Weight Immune-Modulators As Adjuvants for Specific Immunotherapy” (PLS-DESIGN GMBH, priority 2013, published 2016).
# pIC50: −log10 of the molar value. “Also recorded” adds a separate entry of the source. Read-outs that look alike come from different tables or passages of the source. Ends that are not written are not given here.
# Experiments:
# [1] = 10 ng with 100 μg OVA
# [2] = mouse, in vivo
# [3] = i.p. 5 μg/kg every 2 days
# [4] = individuals not adhering to dietary calcium restriction
# [5] = not given; remark: listed apart in the source
# [6] = not given; remark: listed apart in the source
# NF-kappa B translocation = settings: read-out: concentration for 50% inhibition of NF-kappa B translocation
# [7] = test system: isolated rat cardiomyocytes; settings: for glutathione repletion and unmasking of TNFR2-mediated effects (reproducing in vivo NAC treatment): incubation 2-3 hours, 50 μmol/L GSM, 50 μmol/L NAC or 10 mmol/L GSH; for protection against the deleterious effects of TNF-alpha on contraction: preincubation 2-3 hours, exogenously added, 50 μM GSM
# [8] = not given; remark: listed apart in the source
# [9] = in most of the subjects
# [10] = 3-day NAC 120 mg/kg/day, 2-month post-myocardial infarction rats
# [11] = 8 days
# [12] = oral 1800 mg/day added to standard therapy
# [13] = 600 mg to 1000 mg three times daily, 4 weeks
# [14] = 2 μg/day, 3 months
# [15] = for time detectable in serum by HPLC: rats
# [16] = topical, used clinically for years
# [17] = topical pretreatment
# [18] = six months, budesonide 800 μg/d and cholecalciferol 500 IU
# C3 [19] = settings: sera from cynomolgus monkeys; read-out: IC50 of haemolytic activity
# C3 [20] = settings: 10 mg/kg i.v. bolus then 60 μg/kg/min infusion
# [21] = test system: C3 proteins from lower mammalian species, C4 and C5
# [22] = in vivo
# [23] = test system: TNFR1-mediated activation of NF-kappa B
# [24] = in vivo; remark: listed apart in the source
# CD3 = biological target: T1, CD3 (Homo sapiens, UniProt P07766); settings: in vivo
# T1 construct: endogenous in cells; host or cells: T cells of type 1 diabetes patients (clinical studies reported in the literature)
# T1 sequence (P07766 23-207): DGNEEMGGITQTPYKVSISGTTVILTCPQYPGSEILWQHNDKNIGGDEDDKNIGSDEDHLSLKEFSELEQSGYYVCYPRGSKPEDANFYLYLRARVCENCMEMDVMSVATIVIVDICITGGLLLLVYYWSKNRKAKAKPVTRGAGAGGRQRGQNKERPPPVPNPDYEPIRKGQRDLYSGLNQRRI
# T1 sequence (P04234 22-171 partner): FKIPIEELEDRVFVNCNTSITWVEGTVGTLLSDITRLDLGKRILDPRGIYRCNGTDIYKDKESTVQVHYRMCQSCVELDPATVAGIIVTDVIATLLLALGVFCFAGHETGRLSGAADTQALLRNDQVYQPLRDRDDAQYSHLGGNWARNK
# T1 sequence (P09693 23-182 partner): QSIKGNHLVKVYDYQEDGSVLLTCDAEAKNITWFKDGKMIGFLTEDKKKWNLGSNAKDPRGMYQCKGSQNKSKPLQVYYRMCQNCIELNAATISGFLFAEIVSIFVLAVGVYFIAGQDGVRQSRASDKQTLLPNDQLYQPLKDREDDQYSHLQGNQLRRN
# T1 sequence (P20963 22-164 partner): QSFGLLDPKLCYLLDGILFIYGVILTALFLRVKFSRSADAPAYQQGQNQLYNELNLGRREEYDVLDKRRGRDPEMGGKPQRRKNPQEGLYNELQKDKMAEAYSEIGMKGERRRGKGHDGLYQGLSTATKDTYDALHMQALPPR
# [25] = not given; remark: listed apart in the source
# [26] = not given; remark: listed apart in the source
# [27] = oral 4,000-40,000 IU/day, 28 weeks
molecule,measurement,setting,value
"C=C1/C(=C\C=C2/CCC[C@]3(C)[C@@H]([C@H](C)CCCC(C)(C)O)CC[C@@H]23)C[C@@H](O)C[C@@H]1O [1,25-(OH)2D3, 1α,25-dihydroxyvitamin D3]",airway hyper-responsiveness,[1],significantly inhibited
same,serum OVA-specific IgE levels,[1],potentiated the reduction; also recorded: significant reduction
same,development / onset of diabetes,[2],prevented
same,progression of arthritis and hypercalcemia,"diet, 20 ng/mouse/day",effective in inhibiting the progression of arthritis without producing hypercalcemia
same,symptoms of Lyme arthritis (B. burgdorferi infection),dietary supplementation,minimized or prevented
same,symptoms of collagen-induced arthritis,dietary supplementation,prevented
same,treated mice in which appearance of paralysis was prevented,[3],70%
same,adverse effect reported,[4],hypercalcaemia; also recorded: hypercalcemia
"C=C1CC[C@H](O)C/C1=C/C=C1\CCC[C@]2(C)[C@@H]([C@H](C)CCCC(C)(C)O)CC[C@@H]12 [25-OH-D3, 25-hydroxyvitamin D3]",serum levels of 25-OH-D3 to be kept below to avoid toxicity,[5]; based on experiments in the rat,below 250 ng/ml
same,serum levels of 25-OH-D3 at which toxicity occurs,"[5]; rat, in vivo",≥ 500 ng/mL
same,adverse effects,"[6]; 1,000 to 40,000 IU/day",no adverse effects
same,disease progression and relapse activity,[6]; [27],not affected
same,number of new lesions assessed by MRI,[6]; [27],significant decrease
"CC(=O)Oc1ccccc1C(=O)O [ASA, acetylsalicylic acid]",pIC50,NF-kappa B translocation,~2.52
"N[C@@H](CCC(=O)N[C@@H](CS)C(=O)NCC(=O)O)C(=O)O [GSH, glutathione]",glutathione repletion and unmasking of TNFR2-mediated effects (reproducing in vivo NAC treatment),[7],could not reproduce
"CSC[C@H](NC(=O)CC[C@H](N)C(=O)O)C(=O)NCC(=O)O [GSM, S-methylglutathione]",glutathione repletion and unmasking of TNFR2-mediated effects (reproducing in vivo NAC treatment),[7],achieved
same,protection against the deleterious effects of TNF-alpha on contraction,[7],protected
same,solubility in water,[8],8.1 mM
"CC(=O)N[C@@H](CS)C(=O)O [NAC, N-acetyl-L-cysteine]",highest non-toxic dose,[9],800 mg/m^2/day
same,"GSH content of the left ventricle, % of control level in sham rats",[10],75%
same,glutathione repletion and unmasking of TNFR2-mediated effects (reproducing in vivo NAC treatment),[7],could not reproduce
same,protection against the deleterious effects of TNF-alpha on contraction,[7],not protected
same,decrease of ovalbumin-specific IgE and IgG1,[11]; 0.5 g/liter in drinking water,~30%
same,decrease of ovalbumin-specific IgE and IgG1 responses,[11]; 1.0 g/liter in drinking water,more than 70%
same,primary end points including vital capacity,[12],better
same,"safety and effect on blood neutrophil GSH, airway neutrophil count and elastase activity",[13],safe and effective
same,cytotoxicity to resting T cells,"peripheral blood T cells; 1 mM to 20 mM, 3 days, seven donors",nontoxic
same,effect on T cell function and growth,peripheral blood T cells; 10 mM,effective enhancer of T cell function and enhancer of growth
C=C1/C(=C\C=C2/CCC[C@]3(C)[C@@H]([C@H](C)CCCC(C)C)CC[C@@H]23)C[C@@H](O)C[C@@H]1O [alfacalcidiol],patients going into remission,[14],45%
same,patients with improvement of disease activity,[14],89%
C=C1/C(=C\C=C2/CCC[C@]3(C)[C@@H]([C@H](C)/C=C/[C@@H](O)C4CC4)CC[C@@H]23)C[C@@H](O)C[C@@H]1O [calcipotriol],"times less effect on calcium metabolism compared to 1,25-(OH)2D3",calcium metabolism; activation of calcium absorption and bone calcium mobilization,100-200 times
same,"effects of the metabolites, times weaker than those of the parent compound",calcium metabolism; in vivo,100 times
same,time detectable in serum by HPLC,[15]; i.v. 10 μg/kg,up to 5 min
same,time detectable in serum by HPLC,[15]; i.v. 50 μg/kg,up to 10 min
same,half-life in circulation,"[15]; rat, in vivo",short; also recorded: very short
same,"rate of clearance, times higher than for 1,25-(OH)2D3","[15]; rat, in vivo",approximately 140 times
same,systemic toxicity,[16],without systemic toxicity
same,CD4+CD25+ Tregs,[17],induced
same,antigen-specific CD8+ T cell priming,[17],abolished
same,solubility in ethanol,[8],approx. 50 mg/ml
same,"solubility in a 1:5 solution of ethanol:PBS, pH 7.2",[8]; pH 7.2,approx. 0.15 mg/ml
C=C1CC[C@H](O)C/C1=C/C=C1\CCC[C@]2(C)[C@@H]([C@H](C)CCCC(C)C)CC[C@@H]12 [cholecalciferol],children who experienced asthma exacerbation,[18],17%
CC[C@H](C)[C@H](N)C(=O)N[C@H]1CSSC[C@@H](C(=O)N[C@H](C(N)=O)[C@@H](C)O)NC(=O)[C@H](CCCN=C(N)N)NC(=O)[C@H](Cc2cnc[nH]2)NC(=O)[C@H](Cc2cnc[nH]2)NC(=O)CNC(=O)[C@H](Cc2c[nH]c3ccccc23)NC(=O)[C@H](CC(=O)O)NC(=O)[C@H](CCC(N)=O)NC(=O)[C@H](C(C)C)NC(=O)[C@H](C(C)C)NC1=O [compstatin],pIC50,C3 [19],[…]
same,effect in sepsis model,C3 [20],decrease the procoagulant response and to confer organ protection
same,binding to C3 from lower mammalian species or to C4 and C5,[21],does not bind
O=C(O)c1ccccc1O [salicylate],levels at which tinnitus may occasionally occur,[22],≥ 95000 ng/mL
O=C(O)c1ccccc1O [salicylic acid],solubility in ethanol/water (10:90 vol),[8],21 mM
same,solubility in ethanol/water (20:80 vol),[8],35 mM
same,solubility in ethanol/water (30:70 vol),[8],81 mM
same,solubility in ethanol/water (40:60 vol),[8],277 mM
same,solubility in ethanol/water (50:50 vol),[8],526 mM
same,solubility in water,[8]; salicylic acid,14 mM
O=C([O-])c1ccccc1O.[Na+] [sodium salicylate],dose required for inhibition of TNFR1-mediated activation of NF-kappa B,[23],10 to 20 mM
Ac-Phe-[Orn-Pro-DCha-Trp-Arg] [PMX53],half-life,[24],1.17 h
Otelixizumab: Fc-mutated anti CD3 mAb,clinical efficacy in phase III studies,CD3,failed to show clinical efficacy
R121D/Y124D: human IL-4 double mutant antagonizing IL-4 and IL-13,cutaneous wheal response and circulating allergen-specific IgE,"IL-4 and IL-13; subcutaneous, 6 weeks or more",reduced
same,allergen-induced airways hyper-responsiveness,IL-4 and IL-13; subcutaneously or via nebulisation,protect
TFGLQLELT [nonapeptide 180-188],rats showing clinical symptoms of adjuvant arthritis during pretreatment period,[25]; i.p. 100 μg in FIA,none of the rats
same,rats completely protected against subsequently induced adjuvant arthritis,[25]; three times 100 μg in FIA,11 out of 16
Teplizumab: humanized anti CD3 mAb mutated to prevent binding to Fc receptors,clinical efficacy in phase III studies,CD3,failed to show clinical efficacy
vitamin D,relative risk of type 1 diabetes over the subsequent 30 years,[26]; doses of exactly 50 μg/day,0.22
same,relative risk of type 1 diabetes over the subsequent 30 years,"[26]; regular, doses of over 50 μg/day (2000 IU/d)",0.14
same,relative risk of developing type 1 diabetes,[26]; supplements given irregularly,0.16
same,relative risk of developing type 1 diabetes,[26]; supplements given regularly,0.12
